Measurements published in patent US20090028943A1, “PHARMACEUTICAL COMPOSITIONS” (priority 2005, published 2009).

Columns and labels:
Calu-6 tumour xenograft = experiment: in vivo solid tumour model; conditions: once-daily oral, 28 days
[1] = test system: VEGF-stimulated endothelial cell proliferation (HUVEC); experiment: HUVEC assay, VEGF-stimulated proliferation; format: cell-based; conditions: Homo sapiens
range of models = conditions: once-daily oral administration; cited from earlier work
[2] = stability of AZD2171 (hydrolysis, oxidation); format: physicochemical
Description: In order to counteract the plasticity of a drug such as AZD2171 a person skilled in the art would typically try to modify the material's properties with the addition of a complementary excipient such as a brittle filler. However this can limit the drug loading that can be achieved in a formulation, i.e. the percentage of active ingredient therein, and can lead to very large tablets which are difficult to swallow. […] Initial test formulations of AZD2171 were therefore limited to the use of two […] fillers namely lactose and mannitol. The test formulations comprised: […]

[3] = test system: basal endothelial cell proliferation (HUVEC); experiment: HUVEC assay, basal proliferation; format: cell-based; conditions: Homo sapiens

Structure (SMILES): COc1cc2c(Oc3ccc4[nH]c(C)cc4c3F)ncnc2cc1OCCCN1CCCC1 [AZD2171, 4-(4-fluoro-2-methyl-1H-indol-5-yloxy)-6-methoxy-7-(3-(pyrrolidin-1-yl)propoxy)quinazoline]
- inhibition of growth of Calu-6 tumour xenograft (Calu-6 tumour xenograft; 1.5 mg/kg/day): 49%
- inhibition of growth of Calu-6 tumour xenograft (Calu-6 tumour xenograft; 3 mg/kg/day): 69%
- inhibition of growth of Calu-6 tumour xenograft (Calu-6 tumour xenograft; 6 mg/kg/day): 91%
- IC50 [1]: 0.4 ± 0.2 nM
- anti-tumour activity in a range of models (range of models): broad-spectrum anti-tumour activity
- compatibility with brittle filler dibasic calcium phosphate dihydrate [2]: showed hydrolysis
- stability ([2]; degradation by hydrolysis and oxidation): relatively poor stability
- IC50 [3]: > 500 nM
